Data published in PubChem BioAssay AID1996.
Converted amounts (≈) assume the structure as drawn.

Details: buffer; pH 7.4; 200.0 µM

Row | SMILES | solubility kinetic
1 | N#Cc1cc2c(nc1SCC(=O)O)CCCCC2 | > 39.3 µg/mL
2 | Cc1ccccc1NC(=S)NNC(=O)c1ccco1 | > 41.3 µg/mL
3 | Cn1c(N)c(-c2ccccc2)c2ccc([N+](=O)[O-])cc2c1=O | 1.1 µg/mL (≈ 3.73 µM)
4 | O=C(CNC(=O)c1ccc(Br)o1)NCC1CCCO1 (stereo not given) | > 49.7 µg/mL
5 | COc1cccc(C(=O)NC2CCNCC2)c1 | 31.4 µg/mL (≈ 134 µM)
6 | COc1ccc(S(=O)(=O)N2CCOCC2)cc1NC(=O)CSc1ncccn1 | 13.8 µg/mL (≈ 32.5 µM)
7 | CC(=O)Oc1ccc(-c2nc3c(C)cccc3c(=O)o2)cc1 | 2.9 µg/mL (≈ 9.82 µM)
8 | O=C(COC(=O)c1ccccc1O)NC12CC3CC(CC(C3)C1)C2 | 14.5 µg/mL (≈ 44 µM)
9 | COc1cccc(C(=O)Oc2ccc(N3C(=O)CCC3=O)c(C)c2)c1 | > 50.9 µg/mL
10 | CCOc1ncccc1C(=O)Nc1ncc(C)s1 | 15.5 µg/mL (≈ 58.9 µM)
11 | O=C(O)CC1(CC(=O)Nc2ccc3c(c2)OCCCO3)CCCCC1 | 50.6 µg/mL (≈ 146 µM)
12 | Cc1nonc1NC(=O)CSc1nc2ccc(Cl)cc2[nH]1 | 36.4 µg/mL (≈ 112 µM)
13 | O=C1NC2=C(C(=O)CCC2)C(c2cccc([N+](=O)[O-])c2)N1 (stereo not given) | > 43.1 µg/mL
14 | Cc1cccc(NC(=O)CNC(=O)c2ccccc2Cl)n1 | > 45.6 µg/mL
15 | CC1CC(NC(=O)CC#N)CC(C)(C)C1 (stereo not given) | > 31.2 µg/mL
16 | O/N=C/c1ccc2ccccc2n1 | > 25.8 µg/mL
17 | Cc1cc(CNC(=O)COC(=O)C2CC3CCCC(C2)C3=O)cc(C)c1O (stereo not given) | > 56 µg/mL
18 | Cc1ccc(S(=O)(=O)N2CCOCC2)cc1C(=O)OCC(=O)NCCc1ccccc1 | > 67 µg/mL
19 | Cc1cccc(C(=O)NCC(=O)NC(C)CCc2ccccc2)c1 (stereo not given) | 40.8 µg/mL (≈ 126 µM)
20 | COc1cc(OC)c(C(=S)N2CCCC2)cc1OC | 38.9 µg/mL (≈ 138 µM)
21 | Cc1ccc(NC(=O)CCC(=O)Nc2ccc(C)cc2)cc1 | < 0.3 µg/mL
22 | CC(C)c1ccccc1NC(=O)C1CC(=O)N(C2CCCC2)C1 (stereo not given) | > 47.2 µg/mL
23 | COc1ccc(Nc2nc(-c3ccncc3)nc3ccccc23)cc1 | 0.6 µg/mL (≈ 1.83 µM)
24 | O=C(NC1=NCCCCC1)c1cccc2ccccc12 | > 40 µg/mL

Row | SMILES | solubility kinetic
25 | COC(=O)Nc1sc2c(c1C(N)=O)CCC(C)C2 (stereo not given) | 5 µg/mL (≈ 18.6 µM)
26 | COc1cc2c(cc1OC)CN(C(=O)c1ccco1)CC2 | > 43.1 µg/mL
27 | CC(=O)c1c(C)[nH]c(C(=O)Nc2ccccn2)c1C | > 38.6 µg/mL
28 | CC(C)N=c1cc2n(-c3ccc(Cl)cc3)c3ccccc3nc-2cc1Nc1ccc(Cl)cc1 | 0.3 µg/mL (≈ 0.634 µM)
29 | CC1CCc2c(C(=O)NCc3ccco3)csc2C1 (stereo not given) | 34.9 µg/mL (≈ 127 µM)
30 | O=C(O)CCc1ccc(-c2cccs2)n1CCc1ccccc1 | > 48.8 µg/mL
31 | CNC(=O)c1cc2cc(Cc3ccccc3Cl)ccc2oc1=O | < 0.7 µg/mL
32 | Cc1ccc(Cn2ncc(C)c2N)o1 | > 28.7 µg/mL
33 | CC(NC(=O)Nc1cccc(F)c1)c1ccc2c(c1)OCO2 (stereo not given) | 2.1 µg/mL (≈ 6.95 µM)
34 | O=C(O)CSc1nc2ccccc2n1Cc1ccccc1 | > 44.8 µg/mL
35 | COc1ccc(S(=O)(=O)N2CCOCC2)cc1NC(=O)COc1ccc(C)cc1 | 28.4 µg/mL (≈ 67.5 µM)
36 | O=C(NCc1ccncc1)NC12CC3CC(CC(C3)C1)C2 | 41.3 µg/mL (≈ 145 µM)
37 | Cc1nc2cc(Cl)ccc2c(=O)n1Cc1ccncc1 | > 42.9 µg/mL
38 | CSC1=C(C#N)C(c2sccc2C)CC(=O)N1 (stereo not given) | > 39.7 µg/mL
39 | CC(CCc1ccccc1)NS(=O)(=O)c1ccccc1Cl (stereo not given) | 20 µg/mL (≈ 61.8 µM)
40 | O=C(Cc1ccccc1)NCC1OCCc2ccccc21 (stereo not given) | 30.9 µg/mL (≈ 110 µM)
41 | Cc1ccccc1CN(c1ccc(C(=O)N2CCN(C)CC2)cc1)S(C)(=O)=O | > 60.2 µg/mL
42 | O=C(c1ccccc1)C1CCN(c2ncccc2[N+](=O)[O-])CC1 | 10.8 µg/mL (≈ 34.7 µM)
43 | CCOC(=O)CN1C(=O)C(=O)N(Cc2c(Cl)cccc2Cl)C1=O | 30.6 µg/mL (≈ 85.2 µM)
44 | O=C(NCc1ccc(F)cc1)Nc1ccc(Cl)cc1 | 1.1 µg/mL (≈ 3.95 µM)
45 | COc1ccccc1N/C(N)=N/c1nc(C)cc(C)n1 | 38.2 µg/mL (≈ 141 µM)
46 | O=C1COc2ccc(NC(=O)c3ccccc3C(=O)O)cc2N1 | 40.5 µg/mL (≈ 130 µM)
47 | CCC(C)Nc1cc(C)c(C#N)c2nc3ccccc3n12 (stereo not given) | 3.7 µg/mL (≈ 13.3 µM)
48 | O=C1CCCN1CC(O)CS(=O)(=O)Cc1ccccc1Cl (stereo not given) | > 49.8 µg/mL

Row | SMILES | solubility kinetic
49 | Cc1cc(O)cc(=O)n1C | > 20.9 µg/mL
50 | CCNC(=S)Nc1cc2oc3ccccc3c2cc1OC | 3.2 µg/mL (≈ 10.7 µM)
51 | COc1ccc(C(=O)COC(=O)C2CCC(=O)N2)cc1 (stereo not given) | > 41.6 µg/mL
52 | COC(=O)c1ccc(CN2C(=O)c3ccccc3C2=O)o1 | > 42.8 µg/mL
53 | COc1cccc(NC(=O)CCN2CCOCC2)c1.Cl | > 45.1 µg/mL
54 | Cc1cc(OCC(=O)N2CCOCC2)ccc1[N+](=O)[O-] | > 42 µg/mL
55 | Fc1ccc(NC(=S)Nc2ccc3nccnc3c2)cc1 | 41.9 µg/mL (≈ 140 µM)
56 | CC1(C)CC(NC(=O)c2cccc(Cl)c2)CC(C)(C)N1 | > 44.2 µg/mL
57 | CCCCC1(C)NC(=O)N(CC(=O)N2CCc3ccccc32)C1=O (stereo not given) | > 49.4 µg/mL
58 | O=C1c2ccccc2C2(c3cc(C(F)(F)F)cc(C(F)(F)F)c3)NCCN12 (stereo not given) | 55.9 µg/mL (≈ 145 µM)
59 | COc1cc(CNCCO)ccc1OCCc1ccccc1 | > 45.2 µg/mL
60 | CC(=O)Nc1ccc(C(=O)CN2C(=O)NC3(CCCc4ccccc43)C2=O)c(F)c1 (stereo not given) | 53 µg/mL (≈ 129 µM)
61 | CCOCCCNC(=O)CN1C(=O)c2cccc3cccc1c23 | > 46.9 µg/mL
62 | CN(C)S(=O)(=O)c1cccc(NC(=O)COC(=O)c2ccc3ccccc3n2)c1 | 40 µg/mL (≈ 96.7 µM)
63 | CCC(=O)Nc1ccc2c(c1)nc1n2CCN(CCOC)C1 | > 45.4 µg/mL
64 | CC1=C(Nc2ccc(C(=O)O)cc2)C(=O)c2ccccc2C1=O | > 46.1 µg/mL
65 | Cc1nnc(NC(=O)c2ccc(Br)o2)s1 | > 43.2 µg/mL
66 | CN(C(=O)c1cncc(Br)c1)C1C2CC3CC(C2)CC1C3 (stereo not given) | 48.1 µg/mL (≈ 138 µM)
67 | C=C(C)c1ccccc1NC(=O)CCN1C(=O)c2ccccc2S1(=O)=O | > 55.6 µg/mL
68 | CCOc1ccc(S(=O)(=O)NC2CCCCCC2)cc1 | < 0.6 µg/mL
69 | COc1ccccc1N1CCN(C(=O)c2cc3cc(C)ccc3[nH]2)CC1 | < 0.2 µg/mL
70 | COc1cccc(Nc2nc3ccc(OC)cc3s2)c1 | 2.8 µg/mL (≈ 9.78 µM)
71 | Cc1ccc(C(=O)c2cc3c(cc2[N+](=O)[O-])OCCO3)cc1 | 8 µg/mL (≈ 26.7 µM)
72 | Cc1ccc2oc(C(=O)N3CCN(C)C[C@@H]3C(C)C)c(C)c2c1 | 34.3 µg/mL (≈ 109 µM)

Row | SMILES | solubility kinetic
73 | CCc1ccc(NC(=O)C2(C)Cc3ccccc3C(=O)O2)cc1 (stereo not given) | > 46.4 µg/mL
74 | Cc1cc(C)nc(NC(=S)Nc2cccc(F)c2)c1 | < 0.2 µg/mL
75 | COC(=O)CC1C(=O)NCCN1C(=O)c1c(F)cccc1F (stereo not given) | > 46.8 µg/mL
76 | NC(N)=Nc1nc2cc([N+](=O)[O-])ccc2o1 | 6.4 µg/mL (≈ 28.9 µM)
77 | COc1ccc(CCNC(=O)COC(=O)/C=C/c2ccc(OC)cc2OC)cc1 | 5.1 µg/mL (≈ 12.8 µM)
78 | O=c1cc(NCCc2ccccc2)c2ccccc2o1 | 1.1 µg/mL (≈ 4.15 µM)
79 | Cn1c(O)c(C(=Nc2ccc(F)cc2)c2ccccc2)c(=O)n(C)c1=O | 7.4 µg/mL (≈ 20.9 µM)
80 | Cc1cc(C)cc(C(=O)NCCCN2CCOCC2)c1 | > 41.5 µg/mL
81 | C=CCOn1c(=O)c(-c2ccc(Cl)cc2)[n+]([O-])c2ccccc21 | 0.8 µg/mL (≈ 2.43 µM)
82 | CC12CCC(C(=O)Nc3cc(F)ccc3F)(CC1=O)C2(C)C (stereo not given) | 32 µg/mL (≈ 104 µM)
83 | Cc1ccc(OCC(=O)N(C)C2CCCCC2)c([N+](=O)[O-])n1 | > 46.1 µg/mL
84 | CC(C)c1cccc(OCCN2CCCC2)c1 | 22.9 µg/mL (≈ 98.1 µM)
85 | Cc1ccc(O)c(NC(=O)C2CC(c3cccc(Br)c3)=NO2)c1 (stereo not given) | < 0.4 µg/mL
86 | CC(=O)c1cc(CN2CCN(CCC(C)C)C(CCO)C2)cs1 (stereo not given) | > 50.8 µg/mL
87 | CCCN(CC1CC1)C(=S)Nc1ccc(C(C)=O)cc1 | > 43.6 µg/mL
88 | Cc1cccc(C(=O)N2CCC(c3nc4ccccc4s3)CC2)c1 | > 50.5 µg/mL
89 | O=C(c1cc(Br)c(Br)s1)N1CCc2ccccc2C1 | 7 µg/mL (≈ 17.5 µM)
90 | CC(C)(C)NC(=O)NCc1cccnc1 | 29.4 µg/mL (≈ 142 µM)
91 | O=C(NC(=S)Nc1ccc(CN2CCOCC2)cc1)c1ccco1 | > 51.8 µg/mL
92 | CCCN1C(=O)/C(=C2/C=Cc3ccccc3N2CC)SC1=S | < 0.4 µg/mL
93 | Cc1cccc(N2C(=O)c3ccc(Br)cc3C2=O)n1 | > 47.6 µg/mL
94 | Cc1cc(Cl)nc(Cl)c1C(=O)NC(=O)NCCC(C)C | 34.7 µg/mL (≈ 109 µM)
95 | COc1ccc(C(=O)Nc2ccc(CN3CCS(=O)(=O)CC3)cc2)cc1 | 1.3 µg/mL (≈ 3.47 µM)
96 | C=CCn1cnc2c(oc3ccccc32)c1=O | > 33.9 µg/mL

Row | SMILES | solubility kinetic
97 | COc1ccccc1C(=O)NCCC(=O)Nc1ncccc1O | > 47.3 µg/mL
98 | N/C(=N\OC(=O)c1ccc(Cl)c([N+](=O)[O-])c1)c1ccccc1 | 7.9 µg/mL (≈ 24.7 µM)
99 | CCCCOc1ccc(Cn2c(=O)oc3ccccc32)cc1 | < 0.6 µg/mL
100 | O=C(Nc1ccc(Cl)cc1Cl)c1csc(-c2cccnc2)n1 | 1.6 µg/mL (≈ 4.57 µM)
101 | N#C/C(=C\Nc1ccc(Cl)cc1)S(=O)(=O)c1ccccn1 | 8.7 µg/mL (≈ 27.2 µM)
102 | CCN(CC)Cc1nc2c(c(=O)[nH]1)C(CC)(CC)Cc1ccccc1-2 | 1.7 µg/mL (≈ 5.01 µM)
103 | Cn1c(N)c(Br)c(-c2ccc(F)cc2)c(C#N)c1=O | 8 µg/mL (≈ 24.8 µM)
104 | Cc1ccc(S(=O)(=O)N[C@@H](Cc2ccccc2)C(=O)CCl)cc1 | > 52.8 µg/mL
105 | COC(=O)c1ccccc1SCc1csc(C)n1 | 38.7 µg/mL (≈ 139 µM)
106 | CN(C)C(=O)c1cc(C(=O)c2ccc(F)cc2Cl)c[nH]1 | > 44.2 µg/mL
107 | Cc1nn(C)c(NC(=O)c2ccccc2Cl)c1Br | > 49.3 µg/mL
108 | O=C(NNC(=O)c1ccccc1C(=O)O)c1cc2ccccc2o1 | > 48.6 µg/mL
109 | O=C(NCc1cccc(Cl)c1)NC(=O)c1csc([N+](=O)[O-])c1 | < 0.2 µg/mL
110 | CC1CCN(C(=O)c2ccc(S(=O)(=O)N3CCOCC3)cc2)CC1 | 43.2 µg/mL (≈ 123 µM)
111 | Cc1onc(-c2ccccc2)c1CNC(=O)Nc1ccc(F)cc1F | 4.1 µg/mL (≈ 11.9 µM)
112 | COc1ccc(C(=O)OCC(=O)c2c(N)n(C)c(=O)n(C)c2=O)c(OC)c1OC | > 61.1 µg/mL
113 | Cc1ccc(CNCC(O)(c2ccccc2)c2ccccc2)cc1 | 6 µg/mL (≈ 18.9 µM)
114 | O=C(NCc1cccnc1)C1CC(c2ccccc2Cl)=NO1 (stereo not given) | > 47.4 µg/mL
115 | CC(C)CCN1CCN(C/C=C/c2ccco2)CC1CCO (stereo not given) | 45.3 µg/mL (≈ 148 µM)
116 | CN1C(=O)NC(c2ccccc2Cl)C2=C1CC(C)(C)CC2=O (stereo not given) | > 47.8 µg/mL
117 | Cc1ccc(S(=O)(=O)Nc2ccc(Oc3cccnc3)nc2)cc1 | 16.8 µg/mL (≈ 49.2 µM)
118 | O=c1cc(-c2ccco2)nc(SCc2cccc(Cl)c2)[nH]1 | 0.6 µg/mL (≈ 1.88 µM)
119 | O=C(Cc1c(F)cccc1Cl)Nc1ccccn1 | 30.2 µg/mL (≈ 114 µM)
120 | C[C@H](NC(=O)c1ccccc1)C(=O)N1CCN(c2ccccc2)CC1 | > 50.6 µg/mL
